Marks after values point to notes of the source that are not given here.
Tested on: Male rats (Jcl:SD strain)
Assay: Oral sucrose loading in fasted rats with varying dosage of AO-128; blood glucose level
Type: in vivo
Conditions: rats fasted 20 hours, mean ± standard deviation
Experimental: Male rats (Jcl:SD strain, purchased from Clea Japan) aged 6 weeks, which had been raised on commercially available pelleted rat chow (CE-2®, Clea Japan), were fasted for 20 hours and, then, administered orally with 2.5 g/kg of sucrose containing a varying dosage of AO-128. The blood glucose level was determined 30, 60 and 120 minutes after administration.

[1] = AO-128 0.1mg/Kg with 2.5 g/kg sucrose orally
[2] = AO-128 0.2mg/Kg with 2.5 g/kg sucrose orally
[3] = AO-128 0.4mg/Kg with 2.5 g/kg sucrose orally

**Q.** What does the source list for OCC(CO)N[C@H]1C[C@](O)(CO)[C@@H](O)[C@H](O)[C@H]1O [AO-128, N-(l,3-dihydroxy-2-propyl)valiolamine]?
**A.** Blood glucose level 0 min. [1]: 69 ± 4 mg/dL; Blood glucose level 60 min. [1]: 101±2^a mg/dℓ; Blood glucose level 120 min. [1]: 88±3^a mg/dℓ; Delta glucose area [1]: 52±5^b mg/dℓ·hr; Blood glucose level 30 min. [2]: 102±6^b mg/dℓ; Delta glucose area [2]: 38±7^a mg/dℓ·hr; Blood glucose level 0 min. [3]: 67 ± 4 mg/dL; Blood glucose level 30 min. [3]: 79±2^a mg/dℓ; Blood glucose level 60 min. [3]: 77±5^a mg/dℓ; Blood glucose level 120 min. [3]: 71±5^a mg/dℓ

— patent EP0197661A2, “Low-calorie sugar composition” (Takeda Chemical Industries, Ltd., priority 1985, dated 1986)
